# Laboratory results reported in patent US20260242419A1, “A CYCLIC PEPTIDE FOR TRAPPING INTERLEUKIN-1 BETA” (Merck Sharp & Dohme LLC, priority 2023, published 2026).
# pIC50: −log10 of the molar value. Starred links: 1 amine or outer side, 2 acyl side, 3 side chain; linkers in the order of their positions; H or OH if unused. Non-standard residues stand in square brackets, D forms with d. Residues, ends and D or L forms follow the SMILES beside them. Ala(piperidin-4-yl) = O=C([C@H](CC1CCN([*:3])CC1)N[*:1])[*:2]; Trp(βS-Me,4-F) = C[C@@H](c1c[nH]c2cccc(F)c12)[C@H](N)C(=O)O; Bip(4'-COOH) = N[C@@H](Cc1ccc(-c2ccc(C(=O)O)cc2)cc1)C(=O)O; X11 = O=C([C@H]1C[C@@H](Cc2ccc(F)c3ccccc23)CN1[*:1])[*:2]; dPro(4R-Bzl(4-F)) = O=C(O)[C@H]1C[C@@H](Cc2ccc(F)cc2)CN1; dPro(3S-(4-F-Bn)) = O=C(O)[C@@H]1NCC[C@@H]1Cc1ccc(F)cc1; X20 = O=C([C@H]1C[C@@H](Cc2ccc(Cl)cc2)CN1[*:1])[*:2]; X29 = O=C([C@H]1[C@@H](Cc2ccc(Cl)cc2)CCN1[*:1])[*:2]; X4 = O=C([C@H]1[C@@H](Cc2ccncc2)CCN1[*:1])[*:2]; Ala(pyrimidin-5-yl) = N[C@@H](Cc1cncnc1)C(=O)O; Phe(4-COOH) = N[C@@H](Cc1ccc(C(=O)O)cc1)C(=O)O; Ala(4-Pyridazinyl) = N[C@@H](Cc1ccnnc1)C(=O)O; Ala(2-pyrazinyl) = N[C@@H](Cc1cnccn1)C(=O)O; Pro(cis-4-F) = O=C(O)[C@@H]1C[C@H](F)CN1; X6 = O=C([C@H](Cc1ccncn1)N[*:1])[*:2]; cisHyp = O=C(O)[C@@H]1C[C@H](O)CN1; d(αMeD) = C[C@@](N)(CC(=O)O)C(=O)O; 3Pal = N[C@@H](Cc1cccnc1)C(=O)O; 4Pal = N[C@@H](Cc1ccncc1)C(=O)O; Dab = NCC[C@H](N)C(=O)O; Aib = CC(C)(N)C(=O)O
# Target: T1, IL-1β (Homo sapiens, UniProt P01584)
# T1 construct: purchased BioLegend 579404
# Test: IL-6 assay in MRC5 cells: inhibition of IL-1β induced IL-6 secretion (AlphaLISA)
# Format: cell-based
# Conditions: inhibition of IL-1β induced IL-6 secretion in MRC5 cells; read-out: MRC5 IC50
# Method in brief: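 Compound was pre-incubated 1 h at ambient temperature with recombinant human IL-1β at 2λ EC80 before adding human lung fibroblast MRC5 cells (3000/well) in EMEM with 0.025% BSA. After overnight culture at 37 °C, 5% CO2, secreted IL-6 in conditioned medium was measured by AlphaLISA; IC50 from 4-parameter logistic fits.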
# T1 sequence (P01584 117-269): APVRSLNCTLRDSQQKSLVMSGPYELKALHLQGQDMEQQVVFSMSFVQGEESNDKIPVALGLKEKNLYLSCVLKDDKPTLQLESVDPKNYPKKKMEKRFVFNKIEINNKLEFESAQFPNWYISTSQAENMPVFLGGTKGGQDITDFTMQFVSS
row,pIC50,SMILES
1,10.82,"C[C@@H](c1c[nH]c2cccc(F)c12)[C@@H]1NC(=O)[C@@H]2C[C@H](F)CN2C(=O)CNC(=O)[C@H](Cc2ccc(C(=O)O)cc2)NC(=O)[C@H](Cc2ccncc2)NC(=O)[C@H](Cc2ccc(-c3ccc(C(=O)O)cc3)cc2)NC(=O)[C@H]2C[C@@H](Cc3ccc(F)cc3)CN2C(=O)CNC(=O)[C@H](CCN)NC(=O)[C@H](CCC(N)=O)NC(=O)[C@H](Cc2cnccn2)NC(=O)[C@@](C)(CC(=O)O)NC(=O)[C@H](Cc2c[nH]c3ccccc23)NC(=O)[C@H](CO)NC(=O)C(C)(C)NC1=O [Example 321] (cyclo([Bip(4'-COOH)][4Pal][Phe(4-COOH)]G[Pro(cis-4-F)][Trp(βS-Me,4-F)][Aib]SW[d(αMeD)][Ala(2-pyrazinyl)]Q[Dab]G[dPro(4R-Bzl(4-F))]))"
2,10.89,"C[C@@H](c1c[nH]c2cccc(F)c12)[C@@H]1NC(=O)[C@@H]2C[C@H](F)CN2C(=O)CNC(=O)[C@H](Cc2ccc(C(=O)O)cc2)NC(=O)[C@H](Cc2ccncc2)NC(=O)[C@H](Cc2ccc(-c3ccc(C(=O)O)cc3)cc2)NC(=O)[C@H]2C[C@@H](Cc3ccc(F)cc3)CN2C(=O)CNC(=O)[C@H](CCN)NC(=O)[C@H](CCC(N)=O)NC(=O)[C@H](Cc2ccnnc2)NC(=O)[C@@](C)(CC(=O)O)NC(=O)[C@H](Cc2c[nH]c3ccccc23)NC(=O)[C@H](CO)NC(=O)C(C)(C)NC1=O [Example 322] (cyclo([Bip(4'-COOH)][4Pal][Phe(4-COOH)]G[Pro(cis-4-F)][Trp(βS-Me,4-F)][Aib]SW[d(αMeD)][Ala(4-Pyridazinyl)]Q[Dab]G[dPro(4R-Bzl(4-F))]))"
3,10.92,"C[C@@H](c1c[nH]c2cccc(F)c12)[C@@H]1NC(=O)[C@@H]2C[C@H](F)CN2C(=O)CNC(=O)[C@H](Cc2ccc(C(=O)O)cc2)NC(=O)[C@H](Cc2ccncc2)NC(=O)[C@H](Cc2ccc(-c3ccc(C(=O)O)cc3)cc2)NC(=O)[C@H]2C[C@@H](Cc3ccc(F)cc3)CN2C(=O)CNC(=O)[C@H](CCN)NC(=O)[C@H](CCC(N)=O)NC(=O)[C@H](Cc2cccnc2)NC(=O)[C@@](C)(CC(=O)O)NC(=O)[C@H](Cc2c[nH]c3ccccc23)NC(=O)[C@H](CO)NC(=O)C(C)(C)NC1=O [Example 323] (cyclo([Bip(4'-COOH)][4Pal][Phe(4-COOH)]G[Pro(cis-4-F)][Trp(βS-Me,4-F)][Aib]SW[d(αMeD)][3Pal]Q[Dab]G[dPro(4R-Bzl(4-F))]))"
4,10.89,"C[C@@H](c1c[nH]c2cccc(F)c12)[C@@H]1NC(=O)[C@@H]2C[C@H](F)CN2C(=O)CNC(=O)[C@H](Cc2ccc(C(=O)O)cc2)NC(=O)[C@H](Cc2ccncc2)NC(=O)[C@H](Cc2ccc(-c3ccc(C(=O)O)cc3)cc2)NC(=O)[C@H]2C[C@@H](Cc3ccc(F)cc3)CN2C(=O)CNC(=O)[C@H](CCN)NC(=O)[C@H](CCC(N)=O)NC(=O)[C@H](Cc2ccncc2)NC(=O)[C@@](C)(CC(=O)O)NC(=O)[C@H](Cc2c[nH]c3ccccc23)NC(=O)[C@H](CO)NC(=O)C(C)(C)NC1=O [Example 324] (cyclo([Bip(4'-COOH)][4Pal][Phe(4-COOH)]G[Pro(cis-4-F)][Trp(βS-Me,4-F)][Aib]SW[d(αMeD)][4Pal]Q[Dab]G[dPro(4R-Bzl(4-F))]))"
5,10.89,"C[C@@H](c1c[nH]c2cccc(F)c12)[C@@H]1NC(=O)[C@@H]2C[C@H](F)CN2C(=O)CNC(=O)[C@H](Cc2ccc(C(=O)O)cc2)NC(=O)[C@H](Cc2ccncc2)NC(=O)[C@H](Cc2ccc(-c3ccc(C(=O)O)cc3)cc2)NC(=O)[C@H]2C[C@@H](Cc3ccc(F)cc3)CN2C(=O)CNC(=O)[C@H](CCN)NC(=O)[C@H](CCC(N)=O)NC(=O)[C@H](Cc2ccncn2)NC(=O)[C@@](C)(CC(=O)O)NC(=O)[C@H](Cc2c[nH]c3ccccc23)NC(=O)[C@H](CO)NC(=O)C(C)(C)NC1=O [Example 332] (cyclo([Bip(4'-COOH)][4Pal][Phe(4-COOH)]G[Pro(cis-4-F)][Trp(βS-Me,4-F)][Aib]SW[d(αMeD)][X6]Q[Dab]G[dPro(4R-Bzl(4-F))]))"

# Further lines, the compound ahead of its results:
row,SMILES,pIC50
1,"C[C@@H](c1c[nH]c2cccc(F)c12)[C@@H]1NC(=O)[C@@H]2C[C@H](F)CN2C(=O)CNC(=O)[C@H](Cc2ccc(C(=O)O)cc2)NC(=O)[C@H](Cc2ccncc2)NC(=O)[C@H](Cc2ccc(-c3ccc(C(=O)O)cc3)cc2)NC(=O)[C@H]2C[C@@H](Cc3ccc(F)cc3)CN2C(=O)CNC(=O)[C@H](CCN)NC(=O)[C@H](CCC(N)=O)NC(=O)[C@H](CC2CCNCC2)NC(=O)[C@@](C)(CC(=O)O)NC(=O)[C@H](Cc2c[nH]c3ccccc23)NC(=O)[C@H](CO)NC(=O)C(C)(C)NC1=O [Example 320] (cyclo([Bip(4'-COOH)][4Pal][Phe(4-COOH)]G[Pro(cis-4-F)][Trp(βS-Me,4-F)][Aib]SW[d(αMeD)][Ala(piperidin-4-yl)]Q[Dab]G[dPro(4R-Bzl(4-F))]))",10.82
2,"C[C@@H](c1c[nH]c2cccc(F)c12)[C@@H]1NC(=O)[C@@H]2C[C@H](O)CN2C(=O)CNC(=O)[C@H](Cc2ccc(C(=O)O)cc2)NC(=O)[C@H](Cc2ccncc2)NC(=O)[C@H](Cc2ccc(-c3ccc(C(=O)O)cc3)cc2)NC(=O)[C@H]2[C@@H](Cc3ccncc3)CCN2C(=O)CNC(=O)[C@H](CCN)NC(=O)[C@H](CCC(N)=O)NC(=O)[C@H](Cc2cncnc2)NC(=O)C(C)(C)NC(=O)[C@H](Cc2c[nH]c3ccccc23)NC(=O)[C@H](CO)NC(=O)C(C)(C)NC1=O [Example 325] (cyclo([Bip(4'-COOH)][4Pal][Phe(4-COOH)]G[cisHyp][Trp(βS-Me,4-F)][Aib]SW[Aib][Ala(pyrimidin-5-yl)]Q[Dab]G[X4]))",10.57
3,"C[C@@H](c1c[nH]c2cccc(F)c12)[C@@H]1NC(=O)[C@@H]2C[C@H](F)CN2C(=O)CNC(=O)[C@H](Cc2ccc(C(=O)O)cc2)NC(=O)[C@H](Cc2ccncc2)NC(=O)[C@H](Cc2ccc(-c3ccc(C(=O)O)cc3)cc2)NC(=O)[C@H]2[C@@H](Cc3ccncc3)CCN2C(=O)CNC(=O)[C@H](CCN)NC(=O)[C@H](CCC(N)=O)NC(=O)[C@H](Cc2cncnc2)NC(=O)C(C)(C)NC(=O)[C@H](Cc2c[nH]c3ccccc23)NC(=O)[C@H](CO)NC(=O)C(C)(C)NC1=O [Example 326] (cyclo([Bip(4'-COOH)][4Pal][Phe(4-COOH)]G[Pro(cis-4-F)][Trp(βS-Me,4-F)][Aib]SW[Aib][Ala(pyrimidin-5-yl)]Q[Dab]G[X4]))",10.96
4,"C[C@@H](c1c[nH]c2cccc(F)c12)[C@@H]1NC(=O)[C@@H]2C[C@H](F)CN2C(=O)CNC(=O)[C@H](Cc2ccc(C(=O)O)cc2)NC(=O)[C@H](Cc2ccncc2)NC(=O)[C@H](Cc2ccc(-c3ccc(C(=O)O)cc3)cc2)NC(=O)[C@H]2C[C@@H](Cc3ccc(F)c4ccccc34)CN2C(=O)CNC(=O)[C@H](CCN)NC(=O)[C@H](CCC(N)=O)NC(=O)[C@H](Cc2cncnc2)NC(=O)[C@@](C)(CC(=O)O)NC(=O)[C@H](Cc2c[nH]c3ccccc23)NC(=O)[C@H](CO)NC(=O)C(C)(C)NC1=O [Example 327] (cyclo([Bip(4'-COOH)][4Pal][Phe(4-COOH)]G[Pro(cis-4-F)][Trp(βS-Me,4-F)][Aib]SW[d(αMeD)][Ala(pyrimidin-5-yl)]Q[Dab]G[X11]))",10.80
5,"C[C@@H](c1c[nH]c2cccc(F)c12)[C@@H]1NC(=O)[C@@H]2C[C@H](F)CN2C(=O)CNC(=O)[C@H](Cc2ccc(C(=O)O)cc2)NC(=O)[C@H](Cc2ccncc2)NC(=O)[C@H](Cc2ccc(-c3ccc(C(=O)O)cc3)cc2)NC(=O)[C@H]2[C@@H](Cc3ccncc3)CCN2C(=O)CNC(=O)[C@H](CCN)NC(=O)[C@H](CCC(N)=O)NC(=O)[C@H](Cc2cncnc2)NC(=O)[C@@](C)(CC(=O)O)NC(=O)[C@H](Cc2c[nH]c3ccccc23)NC(=O)[C@H](CO)NC(=O)C(C)(C)NC1=O [Example 328] (cyclo([Bip(4'-COOH)][4Pal][Phe(4-COOH)]G[Pro(cis-4-F)][Trp(βS-Me,4-F)][Aib]SW[d(αMeD)][Ala(pyrimidin-5-yl)]Q[Dab]G[X4]))",11.10
6,"C[C@@H](c1c[nH]c2cccc(F)c12)[C@@H]1NC(=O)[C@@H]2C[C@H](F)CN2C(=O)CNC(=O)[C@H](Cc2ccc(C(=O)O)cc2)NC(=O)[C@H](Cc2ccncc2)NC(=O)[C@H](Cc2ccc(-c3ccc(C(=O)O)cc3)cc2)NC(=O)[C@H]2C[C@@H](Cc3ccc(Cl)cc3)CN2C(=O)CNC(=O)[C@H](CCN)NC(=O)[C@H](CCC(N)=O)NC(=O)[C@H](Cc2cncnc2)NC(=O)[C@@](C)(CC(=O)O)NC(=O)[C@H](Cc2c[nH]c3ccccc23)NC(=O)[C@H](CO)NC(=O)C(C)(C)NC1=O [Example 329] (cyclo([Bip(4'-COOH)][4Pal][Phe(4-COOH)]G[Pro(cis-4-F)][Trp(βS-Me,4-F)][Aib]SW[d(αMeD)][Ala(pyrimidin-5-yl)]Q[Dab]G[X20]))",11.05
7,"C[C@@H](c1c[nH]c2cccc(F)c12)[C@@H]1NC(=O)[C@@H]2C[C@H](F)CN2C(=O)CNC(=O)[C@H](Cc2ccc(C(=O)O)cc2)NC(=O)[C@H](Cc2ccncc2)NC(=O)[C@H](Cc2ccc(-c3ccc(C(=O)O)cc3)cc2)NC(=O)[C@H]2[C@@H](Cc3ccc(Cl)cc3)CCN2C(=O)CNC(=O)[C@H](CCN)NC(=O)[C@H](CCC(N)=O)NC(=O)[C@H](Cc2cncnc2)NC(=O)[C@@](C)(CC(=O)O)NC(=O)[C@H](Cc2c[nH]c3ccccc23)NC(=O)[C@H](CO)NC(=O)C(C)(C)NC1=O [Example 330] (cyclo([Bip(4'-COOH)][4Pal][Phe(4-COOH)]G[Pro(cis-4-F)][Trp(βS-Me,4-F)][Aib]SW[d(αMeD)][Ala(pyrimidin-5-yl)]Q[Dab]G[X29]))",11.10
8,"C[C@@H](c1c[nH]c2cccc(F)c12)[C@@H]1NC(=O)[C@@H]2C[C@H](F)CN2C(=O)CNC(=O)[C@H](Cc2ccc(C(=O)O)cc2)NC(=O)[C@H](Cc2ccncc2)NC(=O)[C@H](Cc2ccc(-c3ccc(C(=O)O)cc3)cc2)NC(=O)[C@H]2[C@@H](Cc3ccc(F)cc3)CCN2C(=O)CNC(=O)[C@H](CCN)NC(=O)[C@H](CCC(N)=O)NC(=O)[C@H](Cc2cncnc2)NC(=O)[C@@](C)(CC(=O)O)NC(=O)[C@H](Cc2c[nH]c3ccccc23)NC(=O)[C@H](CO)NC(=O)C(C)(C)NC1=O [Example 331] (cyclo([Bip(4'-COOH)][4Pal][Phe(4-COOH)]G[Pro(cis-4-F)][Trp(βS-Me,4-F)][Aib]SW[d(αMeD)][Ala(pyrimidin-5-yl)]Q[Dab]G[dPro(3S-(4-F-Bn))]))",10.96
